Calls of active or inactive are those of the source. How the calls were made is not given here. Where only a bound is given, the exact number is not on record here.

The subject of the test is M. tuberculosis H37Rv growth inhibition with meropenem. The test can be described thus: dose response, H37Rv, with and without meropenem (AID 434987).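 Further: growth over 7 days at 37 °C before Alamar Blue read on day 9.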
[1] abbreviates: M. tuberculosis H37Rv growth inhibition, measured here: IC50 without meropenem.
Setting [2] is: M. tuberculosis H37Rv growth inhibition, measured here: IC90 without meropenem.
Setting [3] is: measured here: IC90 with meropenem.

For `Cc1noc(NS(=O)(=O)c2ccc(N/C=C\C(=O)c3ccc4c(c3)OCO4)cc2)c1C`, the IC50 (as a rule, the concentration that inhibits the measured activity by half) was 34.2 µM. Under setting [1], this compound came in with an IC50 of 91.5 µM. The IC90 (usually the point of the concentration-response curve where the effect stands at 90%) under setting [2] was > 100 µM. The IC90 under setting [3] is 86 µM.
`CCC(=O)NC(=S)Nc1ccc(NC(=O)c2cccc([N+](=O)[O-])c2C)cc1`: the IC50 was > 100 µM (inactive). Further, the IC50 under setting [1] is > 100 µM. For the same compound, the IC90 under setting [2] was > 100 µM. Further, the IC90 under setting [3] was > 100 µM.
On to `O=C(COC(=O)Cc1ccc(S(=O)(=O)N2CCCCC2)s1)Nc1ccc2c(c1)OCO2`, for which the IC50 was 76.2 µM (inactive). This compound had an IC50 under setting [1] of 68.8 µM. Moreover, the IC90 under setting [2] was > 100 µM. Besides, the IC90 under setting [3] is > 100 µM.
In the case of `O=C(Nc1ccccc1Cl)c1csc(-c2cccnc2)n1`, the IC50 is 23.9 µM. In addition, the IC50 under setting [1] came out at 82.3 µM. Moreover, the IC90 under setting [2] was > 100 µM. In addition, the IC90 under setting [3] is > 100 µM.
With `CCC(C)Nc1c2c(nc3c(-c4ccccc4)c(C)nn13)CCC2` (configuration not stated), the IC50 was > 100 µM (inactive). Moreover, the half-inhibitory concentration (IC50) under setting [1] was > 100 µM. For the same compound, the IC90 under setting [2] was > 100 µM. Besides, the IC90 under setting [3] was > 100 µM.
In the case of `O=C(Nc1ccc(OC(=O)c2ccccc2)c(-c2nc3ccccc3s2)c1)c1ccccc1`, the IC50 was > 100 µM (inactive). Moreover, the IC50 under setting [1] is > 100 µM. Also, the IC90 under setting [2] is > 100 µM. Further, the IC90 under setting [3] is > 100 µM.
For `CC(C)(C)c1cc(Cc2ccccc2)[nH]n1`, the IC50 is 28.2 µM (inactive). For the same compound, the half-inhibitory concentration (IC50) under setting [1] was 43.1 µM. For the same compound, the IC90 under setting [2] was > 100 µM. Further, the 90% effect concentration (IC90) under setting [3] was > 100 µM.
Regarding `COc1ccccc1NC(=O)Nc1nn(C)c2cccc(OC)c12`, the IC50 is 4.18 µM. The IC50 under setting [1] turned out to be 21.1 µM. Further, under setting [2], the IC90 was > 100 µM. The IC90 under setting [3] is > 100 µM.
On to `C/C(=N\NC(=O)c1cc(Br)ccc1O)c1ccccn1`, for which the IC50 is 3.88 µM. For the same compound, the half-maximal inhibitory concentration (IC50) under setting [1] was found to be 94.9 µM. Further, the IC90 under setting [2] is > 100 µM. In addition, the IC90 under setting [3] was > 100 µM.
Consider `CCCC(C)NC(=O)c1ccccc1SC` (configuration not stated), for which the IC50 was 36.4 µM (inactive). Also, under setting [1], the IC50 was found to be 58.5 µM. Besides, the IC90 under setting [2] is > 100 µM. Moreover, under setting [3], the IC90 is > 100 µM.
For the compound `NC(=O)Nc1ccc(C(=O)OCC(=O)Nc2ccc(Cl)cn2)cc1`, the IC50 was > 100 µM (inactive). The half-maximal inhibitory concentration (IC50) under setting [1] was > 100 µM. The IC90 under setting [2] is > 100 µM. Moreover, the IC90 under setting [3] is > 100 µM.
Consider `O=C(Nc1cccc2ccccc12)N1CCCN(c2c(Cl)cncc2Cl)CC1`, for which the IC50 was > 100 µM (inactive). The IC50 under setting [1] was > 100 µM. Also, the IC90 under setting [2] was > 100 µM. The concentration for an effect of 90% (IC90) under setting [3] was > 100 µM.
For the compound `COc1ccc(NC(=O)C(Cc2ccccc2)n2cccc2)c(OC)c1` (configuration not stated), the IC50 is 13.6 µM. Moreover, under setting [1], the IC50 amounted to 47.5 µM. For the same compound, the IC90 under setting [2] is > 100 µM. Moreover, under setting [3], the concentration for an effect of 90% (IC90) was > 100 µM.
Turning to `COc1cc(/C=N/NC(N)=S)ccc1OC(=O)c1ccc(C)cc1`, the IC50 was > 100 µM (inactive). Also, the 50% inhibitory concentration (IC50) under setting [1] is > 100 µM. Also, the IC90 under setting [2] was > 100 µM. The IC90 under setting [3] was > 100 µM.
Take `COc1ccc(-c2cc(C(F)(F)F)nc(SCC(=O)Nc3sc4c(c3C#N)CCC4)n2)cc1`: the IC50 was 94 µM (inactive). Also, the IC50 under setting [1] is > 100 µM. Besides, the IC90 under setting [2] is > 100 µM. Moreover, the IC90 under setting [3] was > 100 µM.
As for `COc1ccc(C(=O)Nc2nc3ccccc3s2)c(OC)c1`, the IC50 was > 100 µM (inactive). The IC50 under setting [1] was > 100 µM. The IC90 under setting [2] is > 100 µM. For the same compound, the IC90 under setting [3] is > 100 µM.
With `COCc1cc(=O)n2[nH]cc(-c3ccccc3)c2n1`, the IC50 is 10.1 µM. The compound further gave a concentration for half-maximal inhibition (IC50) under setting [1] of 41.4 µM. In addition, under setting [2], the IC90 was > 100 µM. Moreover, under setting [3], the IC90 is 15.5 µM.
Taken in the same sequence, the figures for `O=C(C1=C[C@H](c2ccc(Br)cc2)C[C@H](OCCCCO)O1)N1CCN(Cc2ccc3c(c2)OCO3)CC1` were 49.4 µM (inactive), 65.3 µM, 88 µM and > 100 µM.
On to `O=C(CSc1nnc(-c2ccncc2)o1)c1cccc([N+](=O)[O-])c1`, for which the IC50 was 31.6 µM (inactive). This compound registered an IC50 under setting [1] of 46.9 µM. The IC90 under setting [2] is > 100 µM. Also, under setting [3], the 90% effect concentration (IC90) came out at 45.4 µM.
As for `O=C(CSc1ncnc2c1cnn2-c1ccccc1)Nc1ccc2c(c1)OCO2`, the IC50 was 27.3 µM (inactive). Moreover, the IC50 under setting [1] was determined as 49.1 µM. Besides, the IC90 under setting [2] was > 100 µM. Also, the IC90 under setting [3] is > 100 µM.
For `COCCCNc1nc(SCc2ccccc2)nc2sc3c(c12)CCC3`, the IC50 was 97.3 µM (inactive). The IC50 under setting [1] is > 100 µM. Besides, the IC90 under setting [2] is > 100 µM. Moreover, the IC90 under setting [3] is > 100 µM.
For `CCn1nc(C)c([N+](=O)[O-])c1C(=O)NNC(=O)c1ccccc1Cl`, the IC50 was > 100 µM (inactive). The IC50 under setting [1] is > 100 µM. In addition, under setting [2], the IC90 was > 100 µM. The IC90 under setting [3] is > 100 µM.
For the compound `CC(=O)Nc1ccc(S(=O)(=O)Nc2cccc3cccnc23)cc1`, the IC50 is 13.2 µM (inactive). This compound registered an IC50 under setting [1] of 21.5 µM. Further, under setting [2], the IC90 was > 100 µM. Besides, the IC90 under setting [3] was 43.3 µM.

Values taken from PubChem BioAssay AID434987 (Southern Research Specialized Biocontainment Screening …, 2010).
